Experimental data reported in patent US12383505B2, “Nanoparticle for the remodeling of cancer-associated fibroblasts” (University of South Carolina, priority 2021, dated 2025).

Assays:
[1] = test system: NIH3T3 cells; test: DOX induced CAF differentiation, immunocytochemistry of α-SMA and fibronectin; format: cell-based, mouse; conditions: 0.05 μM of free DOX for 48 hours
Description: (§1) Anthracycline-containing regimens are predominantly used in neoadjuvant chemotherapy for breast cancer. See, J. Wang, T. A. Buchholz, L. P. Middleton, D. C. Allred, S. L. Tucker, H. M. Kuerer, F. J. Esteva, G. N. Hortobagyi, A. A. Sahin, Cancer 2002, 94, 3107; M. S. van Ramshorst, A. van der Voort, E. D. van Werkhoven, I. A. Mandjes, I. Kemper, V. O. Dezentjé, I. M. Oving, A. H. Honkoop, L. W. Tick, A. J. van de Wouw, The Lancet Oncology 2018. However, only a little benefit was achieved from this neoadjuvant chemotherapy in the majority of patients. […] Chen, Y.-A. Lai, Y.-C. Lin, J.-W. Ma, L.-F. Huang, N.-S. Yang, C.-T. Ho, S.-C. Kuo, T.-D. Way, Journal Of Agricultural And Food Chemistry 2013, 61, 11817; N. Chintalaramulu, R. Vadivelu, N. Nguyen, I. Cock, Inflammopharmacology 2020, especially at lower doses. To investigate the relationship between DOX and the differentiation and transdifferentiation of CAF and the potential effect of T-CeNP in inhibiting DOX-induced metastasis, T-CeNP was added to NIH3T3 and 4T1 cells either before or after receiving DOX treatment. The expression of the CAF related proteins, including α-SMA and fibronectin, and metastasis-associated E-cadherin were evaluated by immunocytochemistry. […] The quantitative comparison of their corresponding fluorescence intensities further verified these trends. […]

[2] = test system: 4T1-luc orthotopic tumor; test: Neoadjuvant chemotherapy in orthotopic breast cancer model: primary tumor; format: in vivo, BALB/c mice; conditions: i.v., CeNP 1 mg/kg, DOX 3 mg/kg, every 3 days for 4 times
Protocol: (§2) The 4T1 orthotopic model was established following our previous method with a minor modification. All animal experiments were conducted in accordance with NIH regulations and approved by the Institutional Animal Care and Use Committee of the University of South Carolina. 4T1/Luc2 cells (2×10^5 in 20 μl PBS) were injected into the right 4th mammary fat pad of 6-8 weeks female BALB/c mice, and the primary tumor growth was monitored through bioluminescence signal using IVIS imaging system. Two weeks post tumor cell inoculation, the mice were randomly divided into 6 groups (n=10), including control, T-CeNP, T-DOX, free DOX, T-CeNP+T-DOX, and T-CeNP+ Free DOX, and received corresponding neoadjuvant chemotherapy, surgery, and postoperative chemotherapy. In brief, for neoadjuvant chemotherapy, the drugs were intravenously injected at a CeNP dosage of 1 mg/kg and DOX dosage of 3 mg/kg every 3 days for 4 times. Specifically, for the groups of
(§3) T-CeNP+T-DOX and T-CeNP+ free DOX, T-CeNP was administrated to mice 2 days prior to T-DOX or Free DOX treatment. Two days after the last dose, all mice underwent complete
surgical removal of the tumors following our previous method. Two days after the surgery, the mice received another 3 times administration of T-CeNP, T-DOX, free DOX, and their combination as post-surgical chemotherapy. […]

[3] = test system: 4T1-luc lung and liver metastasis; test: Post-surgery lung and liver metastasis in orthotopic breast cancer model; format: in vivo, BALB/c mice
Protocol: as §2, §3
surgical removal of the tumors following our previous method. Two days after the surgery, the mice received another 3 times administration of T-CeNP, T-DOX, free DOX, and their combination as post-surgical chemotherapy. At the end of the study (day 24), the mice were sacrificed, and the lung and liver were harvested for ex vivo bioluminescence imaging to examine the metastasis.
The harvested tumors and major organs were fixed with 4% paraformaldehyde and processed by paraffin sectioning and frozen sectioning. Tissue sections (heart, liver, spleen, and kidney) and lung sections were hematoxylin and eosin (H&E) stained for acute toxicity evaluation and lung metastasis evaluation. […] All the immunofluorescence images were recorded with a fluorescence microscope (Evos™ FL, ThermoFisher Scientific, MA, USA).

[4] = test system: 4T1 cells; test: DOX induced EMT, immunocytochemistry of E-cadherin; format: cell-based, murine; conditions: 0.05 μM of free DOX for 48 hours
Description: as §1

[5] = ex vivo bioluminescence imaging, day 24

Structure (SMILES): COc1cccc2c1C(=O)c1c(O)c3c(c(O)c1C2=O)C[C@@](O)(C(=O)CO)C[C@@H]3O[C@H]1C[C@H](N)[C@H](O)[C@H](C)O1 [free DOX, doxorubicin]
- level of α-SMA and fibronectin [1]: boosted level of α-SMA and fibronectin
- primary tumor size [2]: only slightly reduced the size of the primary tumor
- liver metastasis [3, 5]: inductive effect
- lung metastasis occurrence [3, 5]: developed lung metastasis
- lung metastasis nodules ([3]; nodules on the surface of lung): induced more metastasis nods in the lung
- E-cadherin expression [4]: declined E-cadherin expression
